Source: ChEMBL document CHEMBL3351720, “Design, synthesis and evaluation of benzoisothiazolones as selective inhibitors of PHOSPHO1” (Bioorg Med Chem Lett, 2014)

Experiments:
[1] = molecular target: T1, Phosphomannomutase 2 (Homo sapiens, UniProt O15305); assay: Inhibition of PMM2 (unknown origin)
T1 sequence (O15305 whole entry): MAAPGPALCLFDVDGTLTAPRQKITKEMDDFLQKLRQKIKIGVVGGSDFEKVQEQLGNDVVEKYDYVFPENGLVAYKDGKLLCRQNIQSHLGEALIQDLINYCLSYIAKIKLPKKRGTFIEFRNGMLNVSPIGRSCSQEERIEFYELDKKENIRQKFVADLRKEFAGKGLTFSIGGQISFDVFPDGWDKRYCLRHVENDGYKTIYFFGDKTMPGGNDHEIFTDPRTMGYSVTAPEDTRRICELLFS

[2] = molecular target: T2, Phosphoethanolamine/phosphocholine phosphatase (Homo sapiens, UniProt Q8TCT1); assay: Inhibition of PHOSPHO1 phosphoethanolamine activity (unknown origin) assessed as amount of inorganic phosphate release after 30 mins
T2 sequence (Q8TCT1 whole entry): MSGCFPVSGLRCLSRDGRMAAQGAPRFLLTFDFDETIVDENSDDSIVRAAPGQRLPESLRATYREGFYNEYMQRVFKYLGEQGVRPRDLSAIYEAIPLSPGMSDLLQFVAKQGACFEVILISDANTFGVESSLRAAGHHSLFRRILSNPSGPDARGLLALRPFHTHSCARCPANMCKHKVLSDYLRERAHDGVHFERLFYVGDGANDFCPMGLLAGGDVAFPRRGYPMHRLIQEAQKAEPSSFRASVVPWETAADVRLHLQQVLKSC

[3] = molecular target: T3, Mannose-6-phosphate isomerase (Homo sapiens, UniProt P34949); assay: Inhibition of phosphomannose isomerase (unknown origin)
T3 sequence (P34949 whole entry): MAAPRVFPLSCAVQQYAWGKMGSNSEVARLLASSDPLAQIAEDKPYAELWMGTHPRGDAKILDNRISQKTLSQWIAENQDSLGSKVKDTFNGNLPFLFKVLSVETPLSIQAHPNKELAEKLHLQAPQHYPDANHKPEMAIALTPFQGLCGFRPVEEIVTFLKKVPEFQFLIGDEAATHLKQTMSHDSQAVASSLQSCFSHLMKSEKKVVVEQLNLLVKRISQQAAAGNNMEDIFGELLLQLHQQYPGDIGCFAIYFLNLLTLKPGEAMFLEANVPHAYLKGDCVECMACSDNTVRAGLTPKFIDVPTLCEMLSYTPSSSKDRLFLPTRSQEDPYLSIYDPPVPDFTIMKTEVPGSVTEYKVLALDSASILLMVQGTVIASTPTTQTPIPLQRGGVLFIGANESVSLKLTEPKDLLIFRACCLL

| SMILES | IC50 [1] [µM] | IC50 [2] [µM] | IC50 [3] [µM] |
| --- | --- | --- | --- |
| Cc1cccc(-n2sc3ccccc3c2=O)c1 | > 20 |  |  |
| Cc1cccc(-n2sc3cc(F)ccc3c2=O)c1C | > 20 | 4.7 | 9.9 |
| O=c1c2ccc(F)cc2sn1-c1ccccc1 | > 50 | 0.79 | 1.3 |
| COc1ccc(-n2sc3cc(F)ccc3c2=O)cc1 | > 10 | 6.7 |  |
| O=c1c2ccccc2sn1-c1ccc(Cl)c(S(=O)(=O)N2CCOCC2)c1 | 63 |  |  |
| CCN(CC)S(=O)(=O)c1cccc(-n2sc3ccccc3c2=O)c1 | > 100 |  | > 50 |
| CN(C)c1ccc(-n2sc3ccccc3c2=O)cc1 | > 30 |  | 8.4 |
| CCOC(=O)c1ccc(-n2sc3ccccc3c2=O)cc1 | > 50 |  | 23 |
| Cc1ccc(C)c(-n2sc3cc(F)ccc3c2=O)c1 |  | 3.3 |  |
| O=c1c2ccccc2sn1-c1ccc(F)c(Cl)c1 | > 100 |  | > 50 |
| O=c1c2ccc(F)cc2sn1-c1ccc(F)cc1 | > 50 | > 10 | 3.6 |
